According to ChEMBL document CHEMBL1132786, “Chemical modification of nodulisporic acid A: preliminary structure-activity relationships” (2000):

Test system: Ctenocephalides felis
Assay: Systemic activity against adult cat fleas (Ctenocephalides felis)
Assay type: functional

Structure (SMILES) | Effective concentration, systemic activity against adult cat fleas
C=C(C)[C@H]1C(=O)c2c3c(cc4c5c(n1c24)[C@@]1(C)C(CC[C@H]2[C@](C)(/C=C/C=C(\C)C(=O)NCCN(C)C)[C@@H](O)CC[C@@]21C)C5)C1=CC(C)(C)OC(C)(C)C1[C@@H]3O (stereo not given in full) | 10 p.p.m.
C=C(C)[C@H]1C(=O)c2c3c(cc4c5c(n1c24)[C@@]1(C)C(CC[C@H]2[C@](C)(/C=C/C=C(\C)C(=O)N4CCCCC4)[C@@H](O)CC[C@@]21C)C5)C1=CC(C)(C)OC(C)(C)C1[C@@H]3O (stereo not given in full) | ~1 p.p.m.
C=C(C)[C@H]1C(=O)c2c3c(cc4c5c(n1c24)[C@@]1(C)C(CC[C@H]2[C@](C)(/C=C/C=C(\C)C(=O)N(C)C)[C@@H](O)CC[C@@]21C)C5)C1=CC(C)(C)OC(C)(C)C1[C@@H]3O (stereo not given in full) | ~0.1 p.p.m.
C=C(C)[C@H]1C(=O)c2c3c(cc4c5c(n1c24)[C@@]1(C)C(CC[C@H]2[C@](C)(/C=C/C=C(\C)C(=O)Nc4ccc(F)cc4)[C@@H](O)CC[C@@]21C)C5)C1=CC(C)(C)OC(C)(C)C1[C@@H]3O (stereo not given in full) | 1 p.p.m.
C=C(C)[C@H]1C(=O)c2c3c(cc4c5c(n1c24)[C@@]1(C)C(CC[C@H]2[C@](C)(/C=C/C=C(\C)C(=O)OC)[C@@H](O)CC[C@@]21C)C5)C1=CC(C)(C)OC(C)(C)C1[C@@H]3O (stereo not given in full) | ~10 p.p.m.
C=C(C)[C@H]1C(=O)c2c3c(cc4c5c(n1c24)[C@@]1(C)C(CC[C@H]2[C@](C)(/C=C/C=C(\C)C(=O)OCCO)[C@@H](O)CC[C@@]21C)C5)C1=CC(C)(C)OC(C)(C)C1[C@@H]3O (stereo not given in full) | ~1 p.p.m.
C=C(C)[C@H]1C(=O)c2c3c(cc4c5c(n1c24)[C@@]1(C)C(CC[C@H]2[C@](C)(/C=C/C=C(\C)C(=O)SCC)[C@@H](O)CC[C@@]21C)C5)C1=CC(C)(C)OC(C)(C)C1[C@@H]3O (stereo not given in full) | >1 p.p.m.
C=C(C)[C@H]1C(=O)c2c3c(cc4c5c(n1c24)[C@@]1(C)C(CC[C@H]2[C@](C)(/C=C/C=C(\C)C(=O)NCCC(=O)O)[C@@H](O)CC[C@@]21C)C5)C1=CC(C)(C)OC(C)(C)C1[C@@H]3O (stereo not given in full) | >10 p.p.m.
C=C(C)[C@H]1C(=O)c2c3c(cc4c5c(n1c24)[C@@]1(C)C(CC[C@H]2[C@](C)(/C=C/C=C(\C)C(=O)NCC(N)=O)[C@@H](O)CC[C@@]21C)C5)C1=CC(C)(C)OC(C)(C)C1[C@@H]3O (stereo not given in full) | 10 p.p.m.
C=C(C)[C@H]1C(=O)c2c3c(cc4c5c(n1c24)[C@@]1(C)C(CC[C@H]2[C@](C)(C=O)[C@@H](O)CC[C@@]21C)C5)C1=CC(C)(C)OC(C)(C)C1[C@@H]3O (stereo not given in full) | ~10 p.p.m.
C=C(C)[C@H]1C(=O)c2c3c(cc4c5c(n1c24)[C@@]1(C)C(CC[C@H]2[C@](C)(/C=C/C=C(\C)C(=O)N4CCN(S(C)(=O)=O)CC4)[C@@H](O)CC[C@@]21C)C5)C1=CC(C)(C)OC(C)(C)C1[C@@H]3O (stereo not given in full) [NODULISPORAMIDE] | ~0.01 p.p.m.
C=C(C)[C@H]1C(=O)c2c3c(cc4c5c(n1c24)[C@@]1(C)C(CC[C@H]2[C@](C)(/C=C/C=C(\C)C(=O)NCCO)[C@@H](O)CC[C@@]21C)C5)C1=CC(C)(C)OC(C)(C)C1[C@@H]3O (stereo not given in full) | 0.5 p.p.m.
C=C(C)[C@H]1C(=O)c2c3c(cc4c5c(n1c24)[C@@]1(C)C(CC[C@H]2[C@](C)(/C=C/C=C(\C)C(=O)NC(C)(C)C(=O)N(C)C)[C@@H](O)CC[C@@]21C)C5)C1=CC(C)(C)OC(C)(C)C1[C@@H]3O (stereo not given in full) | 0.01 p.p.m.
C=C(C)[C@H]1C(=O)c2c3c(cc4c5c(n1c24)[C@@]1(C)C(CC[C@H]2[C@](C)(/C=C/C=C(\C)C(=O)N(CC)CCC)[C@@H](O)CC[C@@]21C)C5)C1=CC(C)(C)OC(C)(C)C1[C@@H]3O (stereo not given in full) | ~0.1 p.p.m.
C=C(C)[C@H]1C(=O)c2c3c(cc4c5c(n1c24)[C@@]1(C)C(CC[C@H]2[C@](C)(/C=C/C=C(\C)C(=O)NCc4ccc(Cl)cc4)[C@@H](O)CC[C@@]21C)C5)C1=CC(C)(C)OC(C)(C)C1[C@@H]3O (stereo not given in full) | 0.1 p.p.m.
C=C(C)[C@H]1C(=O)c2c3c(cc4c5c(n1c24)[C@@]1(C)C(CC[C@H]2[C@](C)(/C=C/C=C(\C)C(=O)O)[C@@H](O)CC[C@@]21C)C5)C1=CC(C)(C)OC(C)(C)C1[C@@H]3O (stereo not given in full) [NOD ACID A] | 1 p.p.m.
C=C(C)[C@H]1C(=O)c2c3c(cc4c5c(n1c24)[C@@]1(C)C(CC[C@H]2[C@](C)(/C=C/C=C(\C)C(=O)OCCOCCO)[C@@H](O)CC[C@@]21C)C5)C1=CC(C)(C)OC(C)(C)C1[C@@H]3O (stereo not given in full) | 0.1 p.p.m.
C=C(C)[C@H]1C(=O)c2c3c(cc4c5c(n1c24)[C@@]1(C)C(CC[C@H]2[C@](C)(/C=C/C=C(\C)C(=O)NC(C)(C)C(=O)OC)[C@@H](O)CC[C@@]21C)C5)C1=CC(C)(C)OC(C)(C)C1[C@@H]3O (stereo not given in full) | 1 p.p.m.
C=C(C)[C@H]1C(=O)c2c3c(cc4c5c(n1c24)[C@@]1(C)C(CC[C@H]2[C@](C)(/C=C/C=O)[C@@H](O)CC[C@@]21C)C5)C1=CC(C)(C)OC(C)(C)C1[C@@H]3O (stereo not given in full) | ~10 p.p.m.
C=C(C)[C@H]1C(=O)c2c3c(cc4c5c(n1c24)[C@@]1(C)C(CC[C@H]2[C@](C)(/C=C/C=C(\C)C(=O)N4CCN(C)CC4)[C@@H](O)CC[C@@]21C)C5)C1=CC(C)(C)OC(C)(C)C1[C@@H]3O (stereo not given in full) | 1 p.p.m.
C=C(C)[C@H]1C(=O)c2c3c(cc4c5c(n1c24)[C@@]1(C)C(CC[C@H]2[C@](C)(/C=C/C=C(\C)C(=O)NC)[C@@H](O)CC[C@@]21C)C5)C1=CC(C)(C)OC(C)(C)C1[C@@H]3O (stereo not given in full) | ~0.1 p.p.m.
C=C(C)[C@H]1C(=O)c2c3c(cc4c5c(n1c24)[C@@]1(C)C(CC[C@H]2[C@](C)(/C=C/C=C(\C)C(=O)N4CCN(C(=O)OCC)CC4)[C@@H](O)CC[C@@]21C)C5)C1=CC(C)(C)OC(C)(C)C1[C@@H]3O (stereo not given in full) | 0.1 p.p.m.
C=C(C)[C@H]1C(=O)c2c3c(cc4c5c(n1c24)[C@@]1(C)C(CC[C@H]2[C@](C)(/C=C/C=C(\C)C(N)=O)[C@@H](O)CC[C@@]21C)C5)C1=CC(C)(C)OC(C)(C)C1[C@@H]3O (stereo not given in full) | ~0.1 p.p.m.
C=C(C)[C@H]1C(=O)c2c3c(cc4c5c(n1c24)[C@@]1(C)C(CC[C@H]2[C@](C)(/C=C/C=C(\C)C(=O)OCCCO)[C@@H](O)CC[C@@]21C)C5)C1=CC(C)(C)OC(C)(C)C1[C@@H]3O (stereo not given in full) | 10 p.p.m.
C=C(C)[C@H]1C(=O)c2c3c(cc4c5c(n1c24)[C@@]1(C)C(CC[C@H]2[C@](C)(/C=C/C=C(\C)C(=O)NCCCCCC)[C@@H](O)CC[C@@]21C)C5)C1=CC(C)(C)OC(C)(C)C1[C@@H]3O (stereo not given in full) | ~0.5 p.p.m.
